{"source": "patent US20140050778A1", "about": "“NUCLEIC ACID BINDING COMPOUNDS, METHODS OF MAKING, AND USE THEREOF” (UNIVERSITY OF ROCHESTER, priority 2010, published 2014)", "key": {"[1]": {"tested_on": "human fibroblasts", "assay": "Cell permeability by fluorescence microscopy", "type": "cell-based", "settings": "intrinsic fluorescence, 4 and 5 incubated as a mixture", "description": "For cell permeability studies, human fibroblasts or mouse myoblasts grown to 80% confluence were exposed to compounds for 12 hours in a 96 well tissue culture plate. After removal of the culture media (DMEM, with 10% FBS, 1% pen-strep (GIBCO)) the cells were washed twice with PBS to remove excess compounds. Cells were then imaged while in buffer under a fluorescence microscope (Olympus IX70) in the 96-well plate using a 460 nm emission filter.\nSPR and fluorescence titration experiments, performed using the protocol described in Examples 3 and 4 above, except using as the target a highly conserved RNA sequence responsible for regulating the production of the Gag-Pol polyprotein via a −1 ribosomal frameshift, which occurs along a “slippery sequence” in gag-pol mRNA (SEQ ID NO: 7). This “frameshift stimulatory sequence” (or “HIV-1 FSS”) consists of an upper stemloop and a lower stem, separated by a purine bulge in the most common types of HIV (FIG. 19). For the fluorescent titration experiments, the upper stemloop of SEQ ID NO: 7 was employed. Cell uptake and toxicity studies were carried out using human fibroblasts according to Example 5 above."}, "[2]": {"tested_on": "(CUG)10 RNA (SEQ ID NO: 3)", "assay": "SPR binding to immobilized biotinylated RNA", "settings": "(CUG)10; for improvement in affinity relative to compound 1: SPR KD versus filter-binding KD of compound 1"}, "[3]": {"tested_on": "CUG-CAG duplex (\"Duplex\") (SEQ ID NO: 6)", "assay": "SPR binding to immobilized biotinylated RNA", "settings": "for Residence time (t1/2) for compound binding to RNA / Off-rates (koff) / On-rates (kon): Duplex", "description": "(§1) SPR binding measurements were performed on a Biacore-X instrument (Biacore, Inc., Uppsala, Sweden) with two flow channels (FC1 and FC2). 5′-Biotinylated-RNA sequences, with a C6 linker separating the biotin label from the RNA (Integrated DNA Technologies Inc.) were immobilized on streptavidin (Rockland Immunochemicals) functionalized carboxylmethyl dextran coated sensor chips (CM5, G.E. Healthcare) using EDC/NHS (Advanced ChemTech) coupling chemistry. Filtered (0.2μ), degassed and autoclaved HBS-N buffer (0.01M Hepes, pH=7.4, 0.15 M NaCl) was employed as sample and as running buffer for all SPR experiments. A typical protocol for an experiment is as follows: A CM5 sensor chip was allowed to equilibrate to room temperature and then docked into the instrument. Following priming with running buffer, FC1 and FC2 were conditioned by manual injection of 20 μL aqueous NaOH (50 mM) at a flow rate of 30 μL/min. This was repeated 3 times followed by a wash command. Next, the carboxyl groups on the sensor chip surface in both flow cells were activated separately by injecting 60 μL of freshly prepared 1:1 mixture of EDC (0.4 M) and NHS (0.1 M) at a 5 μL/min flow rate followed by a wash. […] After washing, the surface was deactivated with 60 μL injection of ethanolamine (1M, pH=8.5) at 5 μL/min. The flow cells were primed, and the streptavidin surface in FC1 alone was blocked with 30 μL of biotin (20 μM in HBS-N) at 5 μL/min. The RNA (200 nM in running buffer, HBS-N) to be immobilized was unfolded by heating above its predicted melting temperature in a heated block for 2 min and then allowed to refold by cooling gradually to room temperature. The RNA was then immobilized in FC2 alone to response units ranging from 200-1000 RU using a 5 μL/min flow rate. Representative sensorgrams for the immobilization procedure is shown in FIGS. 2A-B. Two 20 μL aliquots of NaCl (0.5 M) were injected at a 30 μL/min flow rate to remove non-specifically bound RNA. The level of RNA immobilized was noted when the baseline was stable, usually after repeated buffer injection followed by a “prime” command. Binding measurements were performed by flowing various concentrations of the compounds to be analyzed over the immobilized RNA and recording the reference-subtracted (FC2−FC1) sensorgrams. For kinetic analysis, at least five sensorgrams corresponding to different concentrations of compound (usually ranging from 0.05-1 μM in HBS-N) were obtained using flow rates of either 60 μL/min or 30 μL/min. The experimental sensorgrams were globally fitted to a 1:1 binding equation (Biaevaluation software) to obtain association rates (ka) and dissociation rates ([…]) as well as equilibrium binding constants (KD). To measure the binding stoichiometry (n), the relations in equations (1-3) below were used: […]\n(§2) where RUmax is the maximum resonance response unit at saturation, RURNA is the amount RU of RNA immobilized, n is the stoichiometry, MWcompound and MWRNA are molecular weights of compound and RNA respectively, and RUeq represents the resonance response at steady-state (equilibrium). The response units at equilibrium were subjected to Scatchard binding plots of (r/Cfree vs. r).\n(§3) The binding characteristics of compounds 3-11 were evaluated against pathogenic CUG^exp RNA and other RNA sequences by SPR. This technique allows the association and dissociation rates (ka and kd), equilibrium binding constants (KD), and the binding stoichiometry (n) to be measured in a label-free format (Liu and Wilson, “Quantitative Analysis of Small Molecule-nucleic Acid Interactions with a Biosensor Surface and Surface Plasmon Resonance Detection,” Methods Mol. Biol. 613:1-23 (2010), which is hereby incorporated by reference in its entirety). […]"}, "[4]": {"tested_on": "(CUG)2 RNA (SEQ ID NO: 1)", "assay": "SPR binding to immobilized biotinylated RNA", "settings": "for Off-rates (koff) / On-rates (kon): SPR; for ka / kd: Table 7, SPR", "description": "as §1, §2, §3"}, "[5]": {"tested_on": "(CCUG)10 RNA (SEQ ID NO: 4)", "assay": "SPR binding to immobilized biotinylated RNA", "settings": "(CCUG)10; for Off-rates (koff) / On-rates (kon): SPR", "description": "as §1, §2, §3"}, "[6]": {"tested_on": "(CUG)4 RNA (SEQ ID NO: 2)", "assay": "SPR binding to immobilized biotinylated RNA", "settings": "for Off-rates (koff) / On-rates (kon): SPR", "description": "as §1, §2, §3"}, "[7]": {"tested_on": "(CAG)10 RNA (SEQ ID NO: 5)", "assay": "SPR binding to immobilized biotinylated RNA", "settings": "for Off-rates (koff) / On-rates (kon): SPR", "description": "as §1, §2, §3"}}, "note": "Where two headings read alike, the source gives them in different places.", "data": [{"smiles": "CCc1nc2cc3ccccc3cc2cc1C(=O)N1CCC[C@H]1C(=O)N[C@@H](C/C=C\\C[C@H](NC(=O)[C@@H]1CCCN1C(=O)c1cc2cc3ccccc3cc2nc1CC)C(=O)N[C@@H](CCCCN)C(=O)NCCCN)C(=O)N[C@@H](CCCCN)C(=O)NCCCN", "note": "[Compound 4]", "values": [{"measurement": "cell membrane penetration / localization", "setting": "[1]", "value": "Localization is shown, especially in the nucleus of cells"}, {"measurement": "Residence time (t1/2) for compound binding to RNA", "setting": "[2]", "value": 9.7882, "unit": "min"}, {"measurement": "improvement in affinity relative to compound 1", "setting": "[2]", "value": "roughly 50 fold"}, {"measurement": "Off-rates (koff)", "setting": "[2]; SPR", "value": 0.00118, "unit": "s⁻¹"}, {"measurement": "On-rates (kon)", "setting": "[2]; SPR", "value": 27800, "unit": "M⁻¹ s⁻¹"}, {"measurement": "Kd", "setting": "[2]; SPR, read-out: apparent KD", "value": "0.045 ± 0.0033", "unit": "µM"}, {"measurement": "ka", "setting": "[2]; Table 7, SPR", "value": "ka = 2.78E+4/M * s"}, {"measurement": "kd", "setting": "[2]; Table 7, SPR", "value": "kd = 1.18E−3/s"}, {"measurement": "Kd", "setting": "[2]; Table 7, SPR, read-out: KD", "value": 0.045, "unit": "µM"}, {"measurement": "Residence time (t1/2) for compound binding to RNA", "setting": "[3]", "value": 7.549, "unit": "min"}, {"measurement": "binding to duplex CUG-CAG stronger than the E isomer, compound 5", "setting": "[3]; SPR", "value": "approximately 5.7 fold"}, {"measurement": "Off-rates (koff)", "setting": "[3]; SPR", "value": 0.00153, "unit": "s⁻¹"}, {"measurement": "On-rates (kon)", "setting": "[3]; SPR", "value": 29500, "unit": "M⁻¹ s⁻¹"}, {"measurement": "Residence time (t1/2) for compound binding to RNA", "setting": "[4]", "value": 13.08, "unit": "min"}, {"measurement": "Off-rates (koff)", "setting": "[4]", "value": 0.000883, "unit": "s⁻¹"}, {"measurement": "On-rates (kon)", "setting": "[4]", "value": 24500, "unit": "M⁻¹ s⁻¹"}, {"measurement": "ka", "setting": "[4]", "value": "ka = 2.45E+4/M * s"}, {"measurement": "kd", "setting": "[4]", "value": "kd = 8.83E−4/s"}, {"measurement": "Residence time (t1/2) for compound binding to RNA", "setting": "[5]", "value": 6.2772, "unit": "min"}, {"measurement": "Off-rates (koff)", "setting": "[5]", "value": 0.00184, "unit": "s⁻¹"}, {"measurement": "On-rates (kon)", "setting": "[5]", "value": 60100, "unit": "M⁻¹ s⁻¹"}, {"measurement": "Residence time (t1/2) for compound binding to RNA", "setting": "[6]", "value": 7.0858, "unit": "min"}, {"measurement": "Off-rates (koff)", "setting": "[6]", "value": 0.00163, "unit": "s⁻¹"}, {"measurement": "On-rates (kon)", "setting": "[6]", "value": 42400, "unit": "M⁻¹ s⁻¹"}, {"measurement": "Residence time (t1/2) for compound binding to RNA", "setting": "[7]", "value": 3.9965, "unit": "min"}, {"measurement": "Off-rates (koff)", "setting": "[7]", "value": 0.00289, "unit": "s⁻¹"}, {"measurement": "On-rates (kon)", "setting": "[7]", "value": 35600, "unit": "M⁻¹ s⁻¹"}]}, {"smiles": "CCc1nc2cc3ccccc3cc2cc1C(=O)N1CCC[C@H]1C(=O)N[C@@H](C/C=C/C[C@H](NC(=O)[C@@H]1CCCN1C(=O)c1cc2cc3ccccc3cc2nc1CC)C(=O)N[C@@H](CCCCN)C(=O)NCCCN)C(=O)N[C@@H](CCCCN)C(=O)NCCCN", "note": "[Compound 5]", "values": [{"measurement": "cell membrane penetration / localization", "setting": "[1]", "value": "Localization is shown, especially in the nucleus of cells"}, {"measurement": "Residence time (t1/2) for compound binding to RNA", "setting": "[2]", "value": 4.6762, "unit": "min"}, {"measurement": "improvement in affinity relative to compound 1", "setting": "[2]", "value": "roughly 50 fold"}, {"measurement": "Off-rates (koff)", "setting": "[2]; SPR", "value": 0.00247, "unit": "s⁻¹"}, {"measurement": "On-rates (kon)", "setting": "[2]; SPR", "value": 28400, "unit": "M⁻¹ s⁻¹"}, {"measurement": "Kd", "setting": "[2]; SPR, read-out: apparent KD", "value": "0.0882 ± 0.00028", "unit": "µM"}, {"measurement": "ka", "setting": "[2]; Table 7, SPR", "value": "ka = 2.84E+4/M * s"}, {"measurement": "kd", "setting": "[2]; Table 7, SPR", "value": "kd = 2.47E−3/s"}, {"measurement": "Kd", "setting": "[2]; Table 7, SPR, read-out: KD", "value": 0.088, "unit": "µM"}, {"measurement": "Residence time (t1/2) for compound binding to RNA", "setting": "[3]", "value": 3.0078, "unit": "min"}, {"measurement": "Off-rates (koff)", "setting": "[3]; SPR", "value": 0.00384, "unit": "s⁻¹"}, {"measurement": "On-rates (kon)", "setting": "[3]; SPR", "value": 15000, "unit": "M⁻¹ s⁻¹"}, {"measurement": "Residence time (t1/2) for compound binding to RNA", "setting": "[4]", "value": 15.02, "unit": "min"}, {"measurement": "Off-rates (koff)", "setting": "[4]", "value": 0.000769, "unit": "s⁻¹"}, {"measurement": "On-rates (kon)", "setting": "[4]", "value": 20100, "unit": "M⁻¹ s⁻¹"}, {"measurement": "ka", "setting": "[4]", "value": "ka = 2.01E+4/M * s"}, {"measurement": "kd", "setting": "[4]", "value": "kd = 7.69E−4/s"}, {"measurement": "Residence time (t1/2) for compound binding to RNA", "setting": "[5]", "value": 11.702, "unit": "min"}, {"measurement": "Off-rates (koff)", "setting": "[5]", "value": 0.000987, "unit": "s⁻¹"}, {"measurement": "On-rates (kon)", "setting": "[5]", "value": 49700, "unit": "M⁻¹ s⁻¹"}, {"measurement": "Residence time (t1/2) for compound binding to RNA", "setting": "[6]", "value": 8.3093, "unit": "min"}, {"measurement": "Off-rates (koff)", "setting": "[6]", "value": 0.00139, "unit": "s⁻¹"}, {"measurement": "On-rates (kon)", "setting": "[6]", "value": 30100, "unit": "M⁻¹ s⁻¹"}, {"measurement": "Residence time (t1/2) for compound binding to RNA", "setting": "[7]", "value": 4.2308, "unit": "min"}, {"measurement": "Off-rates (koff)", "setting": "[7]", "value": 0.00273, "unit": "s⁻¹"}, {"measurement": "On-rates (kon)", "setting": "[7]", "value": 50200, "unit": "M⁻¹ s⁻¹"}]}]}
